According to patent US10995068B2, “Synthetic sphingolipid-like molecules, drugs, methods of their synthesis and methods of treatment” (The Regents of the University of California, priority 2015, dated 2021):
Values joined by “and” are separate entries in the source; they are usually repeats but may differ in a detail not shown here. Equal values may be shown once. Read-outs that look alike come from different tables or passages of the source.

Experiments:
[1] = test system: PC3 prostate cancer cells; experiment: Cell Titer Glo proliferation assay in PC3; assay type: cell-based, human; conditions: Cell Titer Glo, 72 h; Mean ± SEM, n ≥ 3; read-out: IC50 values in prostate cancer cell lines, PC3
Experimental: (§1) Previously presented compounds 1-4 (FIG. 23), compounds 5-8 (FIG. 28), and control compound FTY720 (FIG. 2) were used to treat the well-established PC3 and DU145 prostate cancer lines (FIG. 29 and Table 1). A Cell Titer Glo assay was performed to measure proliferation of the cancer lines.
(§2) Cell culture studies: Sup-B15 cells are maintained at 2-3 million/mL in RPMI 1640 (Mediatech) supplemented with 10% fetal calf serum (FCS, Sigma-Aldrich), 10 mM Hepes (Mediatech), 55 μM β-mercaptoethanol (Sigma-Aldrich), 2 mM L-glutamine (Mediatech), and antibiotics. All adherent cells are maintained at 70-80% confluence. Cell are cultured in the following media: PC3 & A549, Ham's F12K (Corning Cell Gro) supplemented with 10% FCS and antibiotics; DU145 cells, MEM (Corning Cell Gro) supplemented with 10% FCS, 1 mM sodium pyruvate (Mediatech), and antibiotics; SW620 & MDA-MB-231, DMEM (Corning Cell Gro) with 10% FCS, 1 mM sodium pyruvate (Mediatech), and antibiotics; Panc-1 cells, DMEM (Corning Cell Gro) supplemented with 10% FCS and antibiotics. All of the above cell lines are available from the ATCC.
(§3) Viability assays: Cell Titer Glo assays (Cell Titer Glo Luminescent Cell Viability Assay kit, cat #G7571, Promega Corporation) are performed in clear bottom 96-well black cell culture plates (cat #655090, Greiner Bio-One, NC, USA). After plating at 1,000 cells/well in volume of 100 μl, cells are left undisturbed for at least 24 h before drug addition. After 72 h, cells are prepared for analysis by adding 10 μl of 0.1% Triton-X100 in PBS with shaking for 1 min at room temperature (RT). Cell Titer-Glo cell lysis reagent (20 μl) is then added followed by 1 min of shaking and a 10 min incubation in the dark at RT. Luminescence is detected using an IVIS imaging system (IVIS Lumina II, Perkin Elmer, USA). […] IC50s are determined using GraphPad Prism (GraphPad Software, Inc, La Jolla, Calif.). SupB-15 viability was determined by flow cytometry. Cell Titer Glo assays were performed with the other cell lines.

[2] = test system: DU145 prostate cancer cells; experiment: Cell Titer Glo proliferation assay in DU145; assay type: cell-based, human; conditions: 72 h, Mean ± SEM, n ≥ 3, read-out: IC50 values in prostate cancer cell lines, DU145
Experimental: as §1, §2, §3

[3] = test system: murine hematopoietic cell line FL5.12; experiment: Viability of FL5.12 cells by vital dye exclusion; assay type: cell-based; conditions: for IC50: FL5.12 cells, 48 h, vital dye exclusion, n ≥3, read-out: IC50 (μM) [95% CI]
Experimental: (§4) Cell culture studies: FL5.12 cells (murine hematopoetic cells originally obtained from Craig Thompson, Memorial Sloan Kettering Cancer Center) were maintained at 0.1-0.5 million/ml in RPMI 1640 (Mediatech) supplemented with 10% fetal calf serum (FCS, Sigma-Aldrich), 10 mM Hepes (Mediatech), 500 pg/ml recombinant IL-3 (cat #575502, Biolegend), 55 μM β-mercaptoethanol (Sigma-Aldrich), 2 mM L-glutamine (Mediatech), and antibiotics. Cells were screened for Mycoplasma every 3 months using the Look-Out Mycoplasma PCR Detection kit (cat #MP0035, Sigma).
IC50 values were calculated using GraphPad Prism (GraphPad Software, Inc, La Jolla, Calif.).

[4] = test system: FL5.12 cells; experiment: Vacuolation assay; assay type: cell-based, murine; design: key to Vacuolation score: 0-100 score: (3×%cat3+2×%cat2+1×%cat1)/3; cells graded 0-3 for vacuoles; conditions: for Vacuolation score / vacuolation (in words): FL5.12 cells; for Vacuolation score: 3 h in 2.5 μM compound except where otherwise indicated, mean ± SEM, n ≥3; for vacuolation (in words): at any dose / highest dose tested; for ability to induce vacuole formation: highest concentrations tested (30 μM)
Experimental: (§5) In an exemplified study, nutrient transporter down-regulation was monitored by quantifying surface levels of the amino acid transporter-associated protein, CD98, by flow cytometry. Vacuolation was scored in a range from 0 to […], as determined by a vacuolation assay described in greater detail in the Materials and Methods section below.
Vacuolation assay: Cells were evaluated at 100× using brightfield microscopy and a Nikon TE2000-S fluorescence microscope equipped with DIC filters. Vacuolation was quantified after a 3 h incubation period in 2.5 μM compound except where otherwise indicated. To calculate a vacuolation score, vacuolation severity in at least 15 individual cells/experiment was assessed qualitatively. Scores were assigned to individual cells as follows: 0=no vacuoles, 1=very small vacuoles, 2=multiple well-defined vacuoles, 3=multiple large vacuoles. To calculate the vacuolation score associated with a compound, the following formula was used: vacuolation score=[(3×% cells in category 3)+(2×% cells in category 2)+(1×% cells in category 1)]/3.
The score is divided by 3 so that a compound with 100% of its cells in category 3 would have a vacuolation score of 100. Three independent experiments were conducted and the vacuolation scores averaged to generate a mean+/−SEM. All cells were scored by one lab member after confirming that a blinded individual scored 5 compounds with similar results.

[5] = test system: CD98 (4F2hc, SLC3A2); experiment: Surface CD98 nutrient transporter down-regulation by flow cytometry; assay type: cell-based, murine; conditions: FL5.12 cells; for % CD98 down-regulation: surface CD98 at 3 h, flow cytometry, mean ± SEM, n ≥3
Description: as §5, §4
Nutrient transporter expression: Surface CD98 (4F2hc, SLC3A2) expression was measured at 3 h using phycoerythrin (PE)-conjugated rat anti-mouse CD98 antibody (Biolegend, cat #128208); analysis was restricted to viable cells. PE conjugated Rat IgG2a, k (cat #400508, Biolegend) was used as an isotype control. For staining, 200,000 cells were pelleted, re-suspended in 100 μl FACS block (PBS with 10% FCS and 0.05% NaN3) containing 0.25 μL anti-CD98 antibody, incubated on ice for 30 min, washed twice with 1 ml FACS wash (PBS containing 2% FCS and 0.05% NaN3), and analyzed on a BD LSR II flow cytometer. Data was processed with FlowJo software (Treestar).

Row | Compound | IC50 [3] | Vacuolation score [4] | % CD98 down-regulation [5] | also measured
1 | CCCCCCCCc1ccc([C@H]2C[C@H](CO)N[C@H]2CO)cc1 [Compound 1, (2R,3R,5R)-2,5-bis-hydroxymethyl-3-(4-octyl)phenyl pyrrolidine] | – | – | – | IC50 [1]: 7 ± 0.3 µM; IC50 [2]: 7.3 ± 0.8 µM
2 | CCCCCCCCc1ccc([C@@H]2C[C@@H](CO)N[C@@H]2CO)cc1 [Compound 2] | – | – | – | IC50 [1]: 6.1 ± 1 µM; IC50 [2]: 5.7 ± 0.4 µM
3 | CCCCCCCCc1ccc(C2CCNC2CO)cc1 (centres unmarked) [Compound 7] | – | – | – | IC50 [1]: 5.5 ± 0.7 µM; IC50 [2]: 5.3 ± 0.7 µM
4 | CCCCCCCCc1ccc(COC2CNC(CO)C2)cc1 (centres unmarked) [Compound 102] | 2 µM | 33 ± 2 | 63 ± 3% | –
5 | CCCCCCCCc1ccc(COC2CNC(CO)C2)cc1 (centres unmarked) [Compound 103] | 3 µM | 47 ± 2 | 48 ± 2% | –
6 | CCCCCCCCc1ccc([C@@H]2CCN[C@H]2CO)cc1 [Compound 105] | 1.7 µM | 53 and 53 ± 3 | 47% and 47 ± 3% | –
7 | CCCCCCCCCCCCC/C=C/[C@@H](O)[C@@H](N)CO [Compound 106, sphingosine, reference compound] | – | 57 ± 6 | 48 ± 2% | IC50 ([3]; Mus musculus): 3.6 µM; concentration required to cause similar transporter loss ([5]; CD98 loss): 2.5 µM
8 | CCCCCCCCCCCCCCC[C@@H](O)[C@@H](N)CO [Compound 107, sphinganine, reference compound] | – | 38 ± 6 | 47 ± 3% | IC50 ([3]; Mus musculus): 3.5 µM
9 | CCCCCCCCCCCCC/C=C/[C@@H](O)[C@H](CO)N(C)C [Compound 108, dimethylsphingosine, reference compound] | 0.77 µM and 0.8 µM | 72 ± 3 | 69 ± 2% | fold more potent than sphingosine (106) ([3]; IC50, FL5.12 cells): ~5 fold
10 | CCCCCCc1ccc(COC2CNC(CO)C2)cc1 (centres unmarked) [Compound 111] | 2.7 µM | 0 | 30 ± 2% | –
11 | CCCCC=Cc1ccc(COC2CNC(CO)C2)cc1 (centres unmarked) [Compound 112] | 5.5 µM | 0 | 30 ± 4% | –
12 | CCCCCCC=Cc1ccc(COC2CNC(CO)C2)cc1 (centres unmarked) [Compound 113] | 1.4 µM | 27 ± 1 | 64 ± 1% | –
13 | CCCCCCCCCCCCc1ccc(COC2CNC(CO)C2)cc1 (centres unmarked) [Compound 114] | 10.1 µM | 3 ± 1 | 13 ± 3% | –
14 | CCCCCCCCCCCCCCc1ccc(COC2CNC(CO)C2)cc1 (centres unmarked) [Compound 116] | 10.5 µM | 4 ± 2 | 12 ± 3% | –
15 | CCCCC=Cc1ccc(COC2CNC(CO)C2)cc1 (centres unmarked) [Compound 118] | 5.7 µM | 5 ± 2 | 9 ± 3% | –
16 | CCCCCCC=Cc1ccc(COC2CNC(CO)C2)cc1 (centres unmarked) [Compound 119] | 2.4 µM | 70 ± 1 | 41 ± 3% | –
17 | CCCCCCCCCCc1ccc(COC2CNC(CO)C2)cc1 (centres unmarked) [Compound 120] | 3.6 µM | 36 ± 5 | 28 ± 1% | –
18 | CCCCCCCCCCCCc1ccc(COC2CNC(CO)C2)cc1 (centres unmarked) [Compound 121] | 3.9 µM | 30 ± 2 | 14 ± 4% | –
19 | CCCCCCCCCCCCCCc1ccc(COC2CNC(CO)C2)cc1 (centres unmarked) [Compound 123] | 5.7 µM | 3 ± 3 | 19 ± 1% | –
20 | CCCCCCC=Cc1ccc(C2CCNC2CO)cc1 (centres unmarked) [Compound 125] | 1.7 µM | 84 ± 2 | 58 ± 3% | –
21 | CCCCCCC=Cc1ccc(COC2CC(CO)N(C)C2)cc1 (centres unmarked) [Compound 130] | 1.9 µM | 26 ± 2 | 31 ± 4% | –
22 | CCCCCCCCc1ccc(COC2CC(CO)N(C(C)=O)C2)cc1 (centres unmarked) [Compound 131] | 29.7 µM | 1 ± 1 | 37 ± 3% | fold less potent than analog 102 ([3]; IC50, FL5.12 cells): 10 fold; vacuolation (in words) [4]: no vacuolation activity
23 | CCCCCCCCc1ccc(COC2CC(CO)N(C(=N)N)C2)cc1 (centres unmarked) [Compound 132] | 14.2 µM | 0 | 35 ± 1% | ability to induce vacuole formation [4]: lost
24 | CCCCCCCCc1ccc(COC2CC(CO)N(C(=N)N)C2)cc1 (centres unmarked) [Compound 133] | 17.3 µM | 0 | 34 ± 3% | ability to induce vacuole formation [4]: lost
25 | CCCCCCCCc1ccc([C@H]2CCN(C(C)=O)[C@@H]2CO)cc1 [Compound 134] | 39.7 µM | 0 | 40 ± 4% | vacuolation (in words) [4]: failed to induce vacuolation
26 | CCCCCCC=Cc1ccc(C2CCN(C(C)=O)C2CO)cc1 (centres unmarked) [Compound 135] | 46.2 µM | 2 ± 2 | 40 ± 2% | vacuolation (in words) [4]: failed to induce vacuolation
